Experimental data taken from article PMC11412156 (Journal of medicinal chemistry, 2024).

How the values were obtained:
HDAC3 = HDAC3 (Homo sapiens, UniProt O15379); experiment: HDAC enzyme-based fluorogenic assay, HDAC3; assay type: biochemical
[1] = In vitro metabolic stability in rat liver microsomes; assay type: in vitro ADME; conditions: for half-life: Sprague-Dawley, rat, liver microsomes, pH 7.4; for metabolic stability in RLM, column 0: incubation 0 min; for metabolic stability in RLM, column 0 / metabolic stability in RLM, column 10 / metabolic stability in RLM, column 30 / metabolic stability in RLM, column 45 / metabolic stability in RLM, column 60: 37 °C, NADPH; for metabolic stability in RLM, column 10: incubation 10 min; for metabolic stability in RLM, column 30: incubation 30 min; for metabolic stability in RLM, column 45: incubation 45 min; for metabolic stability in RLM, column 60: incubation 60 min
[2] = Plasma protein binding by equilibrium dialysis; assay type: in vitro ADME; conditions: rat
HsEH = molecular target: T1, HsEH (Homo sapiens, UniProt P34913); experiment: fluorescent-based sEH assay with PHOME as substrate; assay type: biochemical
T1 sequence (P34913 1-555): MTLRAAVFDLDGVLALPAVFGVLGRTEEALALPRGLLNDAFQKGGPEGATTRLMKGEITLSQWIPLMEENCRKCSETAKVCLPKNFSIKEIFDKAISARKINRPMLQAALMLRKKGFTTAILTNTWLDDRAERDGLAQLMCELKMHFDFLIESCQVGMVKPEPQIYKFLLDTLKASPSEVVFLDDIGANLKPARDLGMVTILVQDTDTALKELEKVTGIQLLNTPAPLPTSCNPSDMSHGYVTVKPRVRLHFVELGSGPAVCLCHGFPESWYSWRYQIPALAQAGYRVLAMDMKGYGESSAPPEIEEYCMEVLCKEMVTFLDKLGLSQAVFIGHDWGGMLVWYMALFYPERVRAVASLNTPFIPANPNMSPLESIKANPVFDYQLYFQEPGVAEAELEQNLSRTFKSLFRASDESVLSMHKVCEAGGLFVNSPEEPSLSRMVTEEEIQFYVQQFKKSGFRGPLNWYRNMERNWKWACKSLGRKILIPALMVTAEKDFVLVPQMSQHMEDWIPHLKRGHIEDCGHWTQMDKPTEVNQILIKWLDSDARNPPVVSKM

[3] = system: xylene-induced ear swelling inflammation in mice; experiment: Xylene-induced ear swelling inflammation model in mice; assay type: in vivo, Kunming mice; conditions: Table 7 dose study
[4] = system: acetylation of α-tubulin and histone H3 in THP-1 cell; experiment: Western blot of acetylation of α-tubulin and histone H3 in THP-1 cell; assay type: cell-based; conditions: 1 μM and 2 μM, 24 h
Acute toxicity test = conditions: in vivo
[5] = system: LPS-induced RAW264.7 cells; experiment: Inflammatory factors and iNOS in LPS-induced RAW264.7 cells; assay type: cell-based
[6] = system: formalin-induced inflammatory pain in mice; experiment: Formalin-induced inflammatory pain model in mice; assay type: in vivo, Kunming mice; conditions: for pain response, second phasic response: dose study, Figure 15, compared with the model group

HDAC3, sequence (O15379 whole entry): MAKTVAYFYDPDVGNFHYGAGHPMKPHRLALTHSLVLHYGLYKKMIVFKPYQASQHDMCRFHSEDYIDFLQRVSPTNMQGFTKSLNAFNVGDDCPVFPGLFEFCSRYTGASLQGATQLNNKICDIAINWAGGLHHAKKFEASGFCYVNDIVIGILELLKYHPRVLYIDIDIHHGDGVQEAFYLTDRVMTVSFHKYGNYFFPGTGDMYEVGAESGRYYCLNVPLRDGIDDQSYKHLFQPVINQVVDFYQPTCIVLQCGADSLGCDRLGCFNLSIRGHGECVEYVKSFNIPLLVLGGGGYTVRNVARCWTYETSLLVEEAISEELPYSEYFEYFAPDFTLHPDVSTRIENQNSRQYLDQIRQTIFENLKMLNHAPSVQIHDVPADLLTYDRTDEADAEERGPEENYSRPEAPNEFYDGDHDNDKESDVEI
HDAC3, sequence (Q9Y618 395-489 partner limits assumed): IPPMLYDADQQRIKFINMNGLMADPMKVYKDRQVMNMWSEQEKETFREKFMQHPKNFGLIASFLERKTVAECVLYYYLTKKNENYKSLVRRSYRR

SMILES	IC50 (HDAC3)	half-life [1]	metabolic stability in RLM, column 0 [1]	metabolic stability in RLM, column 10 [1]	metabolic stability in RLM, column 30 [1]	metabolic stability in RLM, column 45 [1]	metabolic stability in RLM, column 60 [1]	fraction unbound [2]	IC50 (HsEH)	further results
O=C(CCCCCCNC(=O)[C@H]1CCCN(C(=O)c2ccc(NC(=O)Nc3cc(F)cc(F)c3)c(F)c2)C1)NO [Compound 28j, (S)-1-(4-(3-(3,5-Difluorophenyl)ureido)-3-fluorobenzoyl)-N-(7-(hydroxyamino)-7-oxoheptyl)piperidine-3-carboxamide]	2620 nM	0.939 h	100.00	85.62	73.00	59.75	50.47	0.119	3.6 nM	
O=C(CCCCCCNC(=O)[C@H]1CCCN(C(=O)c2ccc(NC(=O)Nc3ccc(Cl)c(F)c3)c(F)c2)C1)NO [Compound 28g, (S)-1-(4-(3-(4-Chloro-3-fluorophenyl)ureido)-3-fluorobenzoyl)-N-(7-(hydroxyamino)-7-oxoheptyl)piperidine-3-carboxamide]	1280 nM	2.28 h	100.00	91.61	83.80	78.76	70.64	0.113	0.9 nM	Inhibition rate ([3]; 10 mg/kg by gavage for 7 days): 44.39%; Swelling degree ([3]; 10 mg/kg by gavage for 7 days): 8.7 ± 1.7 mg; Swelling rate ([3]; 10 mg/kg by gavage for 7 days): 69.39%; Inhibition rate ([3]; 30 mg/kg by gavage for 7 days): 67.17%; Swelling degree ([3]; 30 mg/kg by gavage for 7 days): 5.1 ± 0.9 mg; Swelling rate ([3]; 30 mg/kg by gavage for 7 days): 39.50%; acetylation of histone H3 [4]: without affecting histone H3; acetylation of α-tubulin [4]: induced an increase in acetylation of α-tubulin; safety in acute toxicity test (Acute toxicity test): good safety; levels of gene expression of iNOS ([5]; LPS-induced RAW264.7 cells, western blot): suppressed; levels of IL-6, IL-1β, TNF-α and NO ([5]; RAW264.7 cells preconditioned 1–100 µg/mL for 12 h, then LPS 1 µg/mL 12 h, ELISA): significantly reversed this change; pain response, second phasic response ([6]; 10 mg/kg): reduced the pain response; pain response, second phasic response ([6]; 30 mg/kg (high-dose)): significantly reduced the pain response; pain response time, first phasic response ([6]; mice, 30 mg/kg intraperitoneally, Figure 13): did not significantly reduce the pain response time
